This note sets out measurements from ChEMBL document CHEMBL5634144, “Design, synthesis and biological evaluation of novel DCLK1 inhibitor containing purine skeleton for the treatment of pancreatic cancer” (Eur J Med Chem, 2023).

Activity calls are given as the source filed them. The calls are words filed in the database; no cut-off is given here.

The target in test [1] is T1, Serine/threonine-protein kinase DCLK1 (Homo sapiens, UniProt O15075).
T1 sequence (O15075 whole entry): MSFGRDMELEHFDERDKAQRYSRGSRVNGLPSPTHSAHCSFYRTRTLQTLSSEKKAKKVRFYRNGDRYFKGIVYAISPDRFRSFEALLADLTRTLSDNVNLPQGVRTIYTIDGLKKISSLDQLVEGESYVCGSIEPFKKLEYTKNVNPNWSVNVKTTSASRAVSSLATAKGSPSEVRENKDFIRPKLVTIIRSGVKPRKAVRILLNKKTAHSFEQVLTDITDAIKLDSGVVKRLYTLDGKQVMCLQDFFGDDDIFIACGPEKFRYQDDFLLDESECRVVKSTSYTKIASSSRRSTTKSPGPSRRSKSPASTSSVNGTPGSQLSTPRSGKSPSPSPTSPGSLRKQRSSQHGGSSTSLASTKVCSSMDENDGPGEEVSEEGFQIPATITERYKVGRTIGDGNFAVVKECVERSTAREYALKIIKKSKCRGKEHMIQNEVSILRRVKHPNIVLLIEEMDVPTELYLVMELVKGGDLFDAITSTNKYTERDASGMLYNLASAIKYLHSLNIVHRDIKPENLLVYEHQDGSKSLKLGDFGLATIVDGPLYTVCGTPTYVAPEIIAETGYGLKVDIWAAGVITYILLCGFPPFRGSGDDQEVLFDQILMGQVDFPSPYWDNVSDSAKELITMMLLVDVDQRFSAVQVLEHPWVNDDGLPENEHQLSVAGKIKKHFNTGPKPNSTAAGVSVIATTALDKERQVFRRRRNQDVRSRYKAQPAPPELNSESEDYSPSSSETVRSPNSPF
Put plainly: Inhibition of DCLK1 (unknown origin) preincubated for 10 mins followed by substrate/ATP addition measured after 60 mins by mobility shift assay.

Test [2] concerns SW1990. In words: Antiproliferative activity against human SW1990 cells assessed as inhibition cell proliferation incubated for 6 days by MTT assay. To be noted: SW1990, 144 h. Format: functional, cell-based.
Test [3] deals with SW1990. In words: Induction of apoptosis in human SW1990 cells assessed as early apoptotic cells at 10 uM incubated for 6 days by Annexin V/PI staining based flow cytometry (reference value: 4.55 %). The test is classed as functional. To be noted: time 6 day.
In test [4] the test system is SW1990. Put plainly: Induction of cell cycle arrest at G2/M phase in human SW1990 cells at 10 uM incubated for 6 days by PI staining based flow cytometry (reference value: 29.15 %). To be noted: time 6 day. The test is classed as functional.
Test [5] has as its system SW1990. Put plainly: Induction of cell cycle arrest at S phase in human SW1990 cells at 10 uM incubated for 6 days by PI staining based flow cytometry (reference value: 21.20 %). Format: functional. To be noted: time 6 day.
Test [6] has as its system SW1990. Put plainly: Antitumor activity against human SW1990 cells xenografted in BALB/c nude mouse model assessed as tumor growth inhibition at 60 mg/kg, ip for 21 days consecutively relative to control. Format: functional. To be noted: SW1990, 504 h, time 21 day, read-out: TGI.
For test [7], the target named is T1, Serine/threonine-protein kinase DCLK1. In words: Inhibition of DCLK1 (unknown origin) in presence of 33P-ATP.
A further test concerns CAKI-1. In words: Antiproliferative activity against human CAKI-1 cells assessed as inhibition cell proliferation incubated for 6 days by MTT assay. The test is classed as functional, cell-based. To be noted: CAKI-1, 144 h.
Test [8] deals with SW1990. In words: Induction of cell cycle arrest at G0/G1 phase in human SW1990 cells at 10 uM incubated for 6 days by PI staining based flow cytometry (reference value: 49.65 %). The test is classed as functional. To be noted: time 6 day.
Test [9] has as its system SW1990. Put plainly: Induction of apoptosis in human SW1990 cells assessed as late apoptotic cells at 10 uM incubated for 6 days by Annexin V/PI staining based flow cytometry (reference value: 2.01 %). Format: functional. To be noted: time 6 day.
The subject of test [10] is SW1990. Put plainly: Induction of apoptosis in human SW1990 cells assessed as viable cells at 10 uM incubated for 6 days by Annexin V/PI staining based flow cytometry (reference value: 92.93 %). Format: functional. To be noted: SW1990, 144 h, time 6 day, read-out: Activity.
The test system of test [11] is SW1990. Put plainly: Inhibition of cell invasion in human SW1990 cells at 10 uM by transwell assay. Format: functional, cell-based.
In a further test the test system is HCT-116. Put plainly: Antiproliferative activity against human HCT-116 cells assessed as inhibition cell proliferation incubated for 6 days by MTT assay. The test is classed as functional, cell-based. To be noted: HCT-116, 144 h.
Test [12] deals with SW1990. In words: Induction of apoptosis in human SW1990 cells assessed as necrotic cells at 10 uM incubated for 6 days by Annexin V/PI staining based flow cytometry (reference value: 0.50 %). The test is classed as functional. To be noted: time 6 day.
Test [13] relates to SW1990. Put plainly: Inhibition of cell migration in human SW1990 cells at 10 uM by transwell assay. The test is classed as functional, cell-based.

As to `COc1ccccc1Nc1nc(Nc2ccccc2S(=O)(=O)C(C)C)c2nc[nH]c2n1`, the half-maximal inhibitory concentration (IC50) in test [1] was 0.171 µM.
As to `COc1cc(N2CCN(C)CC2)ccc1Nc1ncc2c(n1)N(C)c1ccccc1C(=O)N2CC(F)(F)F`, the IC50 came to 14 µM with SW1990 [2]; 0.0379 µM in test [1]; 0.0572 µM in test [7]; 12.2 µM in the test with CAKI-1; 6.2 µM in the test with HCT-116. For the same compound, the Activity in the test on SW1990 [3] came out at 18.23%; in the test on SW1990 [4], 21.75%; with SW1990 [5], 16.89%; in the test with SW1990 [8], 61.36%; with SW1990 [9], 12.13%; in the test on SW1990 [12], 8.99%. Further, in the test on SW1990 [6], the inhibition in vivo at 60 mg/kg amounted to 24.8%. The viability at 10 µM in the test on SW1990 [10] was determined as 60.6%. Also, the inhibition entry in the test with SW1990 [11] and in the test on SW1990 [13] was “Active” in each case.
